Reference: patent US20220117964A1, “COMBINATION OF FAK INHIBITOR AND BTK INHIBITOR FOR TREATING A DISEASE” (ASCENTAGE PHARMA (SUZHU) CO., LTD., priority 2019, published 2022)
Like-named read-outs stand apart in the source and are kept apart here.

How the values were obtained:
KYSE-150 cells [1] = experiment: Cell migration (Transwell) assay; assay type: cell-based, human; conditions: 1 μM Compound 5, 1 μM Ibrutinib or both
Method: The culture medium was sucked into a chamber of Transwell (PC membrane, pore size 8.0 μm, Corning, N.Y., USA), and then the chamber was placed in a 24-well plate containing 750 μl of 50% FBS medium. After incubation for 24 to 30 hours, the chamber was taken out, the medium in the chamber was sucked out, and the redundant cells in the chamber were wiped off with a cotton swab. The chamber was placed in paraformaldehyde to perform fixation for 15 minutes, and staining was performed with 0.5% crystal violet at room temperature for 15 minutes. Cell migration activity was described as a relative number of the cells that exited the chamber.
(§1) (1) The experimental method was as described in the items (1), (2), (5) of Example 2. […] The changes in signaling pathway of related proteins were determined by Western blotting assay.

[2] = system: phosphorylated-AKT (p-AKT, Ser397); experiment: Western blot, KYSE-150 and KYSE-520 cells; assay type: cell-based; conditions: KYSE-150 (1 μM Compound 5, 1 μM Ibrutinib) and KYSE-520 (1 μM Compound 5, 0.5 μM Ibrutinib), 24 hours
Method: The cells were lysed on ice with 1× cell lysis buffer containing 1% protease inhibitor (PMSF) and 1% phosphokinase inhibitor for 30 minutes, centrifuged at 12000 rpm and 4° C. for 15 minutes, and the supernatant protein lysate was collected. The protein concentration was measured by BCA protein concentration detection kit. The cell protein lysates (20 to 50 μg) were separated using 8-12% SDS-PAGE electrophoresis. The separated proteins were transferred to a PVDF membrane. The PVDF membrane was blocked with 5% BSA buffer at room temperature for 30 minutes to 1 hour, and then incubated overnight on a 4° C. shaker with 1× TBST containing primary antibody. The redundant primary antibody was eluted, and the membrane was washed 3 times with 1× TBST, 5 to 10 minutes for each time. The protein band membrane was incubated with horseradish peroxidase-labeled secondary antibody dilution for 1 hour at room temperature, and the membrane was washed 3 times with 1× TBST, 5 to 10 minutes for each time. The signal generation and detection were performed using an ECL chemiluminescence ultrasensitive colorimetric kit and a chemiluminescence imaging system. […]
as §1

YES-2 = experiment: CCK-8 cell viability assay; assay type: cell-based; conditions: read-out: IC50, proliferation inhibition
Method: (§2) Cell viability was measured using Cell Counting Kit-8 (Dojindo, Japan) according to the manufacturer's instructions. In short, cells were inoculated in a 96-well plate at 3000 to 4000 cells/well in the presence of a single drug or a combination of drugs for 72 hours. After 72 hours, CCK-8 reagent (10 μL/well) was added and incubated at 37° C. for 1-2 hours, and absorbance readings at 450 nm were obtained. The IC50 values were calculated by using GraphPad Prism version 6.0.0 (GraphPad Software, San Diego, Calif. USA) for Windows.
(§3) (1) The experimental method was described in item (1) and item (5) of Example 2. The expression difference of FAK gene between normal esophageal tissue and esophageal cancer tissue was determined by analyzing the TCGA database source information in the GEPIA database (http://gepia.cancer-pku.cn/), and the correlation between the FAK gene and the EGFR gene in esophageal cancer was determined by analyzing the TCGA database source information using the Pearson test. The basic protein expression levels for the following proteins in 6 esophageal cancer cell lines (TE-10, TE-1, YES-2, KYSE-520, KYSE-510, KYSE-150) were detected by Western blot method: EGFR, phosphorylated-EGFR (p-EGFR, Tyr1068), FAK, phosphorylated-FAK (p-FAK, Tyr397), BTK, C-Myc, phosphorylated-C-Myc (p-C-Myc), in which f3-tubulin was used as internal reference protein.
(§4) (1) The experimental methods were as described in the items (1), (3) and (4) of Example 2.

KYSE-150 = experiment: CCK-8 cell viability assay; assay type: cell-based; conditions: Homo sapiens; KYSE-150 cells, CCK-8, 72 hours; read-out: IC50, proliferation inhibition
Method: as §2, §3, §4

KYSE-520 = experiment: CCK-8 cell viability assay; assay type: cell-based; conditions: Homo sapiens; KYSE-520 cells, CCK-8, 72 hours; read-out: IC50, proliferation inhibition
Method: as §2, §3, §4

KYSE-150 cells [3] = experiment: Colony formation assay; assay type: cell-based, human; conditions: 1 μM Compound 5, 1 μM Ibrutinib or both, 12 days
Method: Growth inhibition was detected by colony formation assay. ESCC cells were inoculated in 6-well plates at about 500 cells/well, and treated with different inhibitors or DMSO, and then replaced with fresh medium containing with different inhibitors or DMSO every 3 to 4 days. The cells were stained with crystal violet (V5265, Sigma, St Louis, Mo., USA) on day 12. After washing twice with PBS, the cells were fixed with 1% paraformaldehyde and incubated for 15 minutes at room temperature. The cells were then washed twice with PBS and stained with 0.5% crystal violet for 15 minutes at room temperature.
as §1

Q: `Cc1cc(Nc2ncc(Cl)c(Nc3ccccc3S(=O)(=O)C(C)C)n2)c(OC(C)C)cc1C1=CCN(C2CCOCC2)CC1` [Compound 5, 5-chloro-N^2-(2-isopropoxy-5-methyl-4-(1-(tetrahydro-2H-pyran-4-yl)-1,2,3,6-tetrahydropyridin-4-yl)phenyl)-N^4-(2-(isopropylsulfonyl)phenyl)pyrimidine-2,4-diamine] was tested. Which cell migration (KYSE-150 cells [1]) did it give?
A: Its cell migration is “cell migration in certain extent”.

Q: And the “protein expression level of phosphorylated-AKT (p-AKT, Ser397)” value [2]?
A: The value was “significantly decrease”.

Q: What about the IC50 (YES-2; YES-2 cells, CCK-8, 72 hours) of the same compound?
A: Its IC50 is 0.956 µM.

Q: What about the IC50 (KYSE-150) of the same compound?
A: The IC50 was 2.31 µM.

Q: What about the IC50 (KYSE-520) of the same compound?
A: The IC50 was 0.825 µM.

Q: What about the “inhibitory effect on cell clone formation” value (KYSE-150 cells [3]) of the same compound?
A: Its value is “stronger inhibitory effects”.

Q: What does the source list for `C=CC(=O)N1CCC[C@@H](n2nc(-c3ccc(Oc4ccccc4)cc3)c3c(N)ncnc32)C1` [Ibrutinib]?
A: cell migration (KYSE-150 cells [1]): cell migration in certain extent; IC50 (YES-2; 72 h): 0.177 µM; IC50 (KYSE-150): 1.23 µM; IC50 (KYSE-520): 0.245 µM
